Measurements reported in publication PMC6259458, “Investigating the Spectrum of Biological Activity of Ring-Substituted Salicylanilides and Carbamoylphenylcarbamates” (Molecules, 2010).
In brackets after ≈: the same amount, converted by molar mass. Like-named read-outs stand apart in the source and are kept apart here.

Legend:
[1] = test system: human SK-N-MC neuroepithelioma cell line; assay: In vitro anti-proliferative activity, MTT assay; assay type: cell-based; settings: SK-N-MC cells, 72 h
Description: Therefore, the anti-proliferative activity of compounds 1-5 was examined against the human SK-N-MC neuroepithelioma cell line to determine if there were any undesired cytotoxic side-effects. The SK-N-MC cell line was chosen as the effect of iron chelators on the proliferation of these cells has been extensively examined. The anti-proliferative activity of the evaluated compounds was assessed in comparison to the well-known clinically used iron chelator, desferrioxamine (DFO), and the highly cytotoxic chelator, di-2-pyridylketone 4,4-dimethyl-3-thiosemicarbazone (Dp44mT).
The human SK-N-MC neuroepithelioma cell type was obtained from the American Type Culture Collection (Manassas, VA, USA) and was cultured in minimum essential medium (MEM; Gibco, Melbourne, Australia) containing 10% (v/v) FBS, 1.0 mM sodium pyruvate (Gibco), 1% (v/v) non-essential amino acids (Gibco), 2 mM L-glutamine (Gibco), 100 U/mL penicillin (Gibco), streptomycin (Gibco) and 0.28 μg/mL fungizone (Squibb Pharmaceuticals, Montreal, Canada). […]
The effect of the compounds on cellular proliferation was determined by the MTT [1-(4,5-dimethylthiazol-2-yl)-2,5-diphenyl tetrazolium] assay using standard techniques. […] After solubilization of the cells with 100 μL of 10% SDS-50% isobutanol in 0.01 M HCl, the plates were read at 570 nm using a scanning multi-well spectrophotometer.

[2] = test system: Absidia corymbifera 272; assay: In vitro anti-fungal susceptibility, broth microdilution; assay type: cell-based
Description: (§1) The broth microdilution test was used for the assessment of in vitro anti-fungal activity of the synthesized compounds against Absidia corymbifera 272 (AC) and Trichophyton mentagrophytes 445 (TM). Fluconazole (FLU) was used as the standard since it is a clinically used anti-mycotic drug. The procedure was performed with a two-fold dilution of the compounds in […]., Prague, Czech Republic) buffered to pH 7.0 with 0.165 mol of 3-morpholino-propane-1-sulfonic acid (MOPS, Sigma, Germany). […] Drug-free controls were included. […] The values of the minimum inhibitory concentration (MICs) were determined after 24 and 48 h of static incubation at 35 °C. For T. mentagrophytes, the final MICs were determined after 72 and 120 h of incubation.

[3] = test system: Trichophyton mentagrophytes 445; assay: as above; assay type: cell-based; settings: MIC = IC50 value, NA = no significant activity
Description: as §1

[4] = test system: methicilin resistant Staphylococcus aureus H 5996/08; assay: In vitro anti-bacterial susceptibility, Mueller-Hinton broth; assay type: cell-based; settings: MRSA, methicillin-resistant Staphylococcus aureus, MIC = IC90 value, NA = no significant activity
[5] = Lipophilicity determination by RP-HPLC (capacity factor k / log k); assay type: physicochemical; settings: C18 column, MeOH 70% / H2O 30%, isocratic
Description: Hydrophobicities (log P/Clog P) of the compounds 1-5 and 8-14 were calculated using two commercially available programs (ChemDraw Ultra 10.0 and ACD/LogP) and also measured by means of the RP-HPLC determination of capacity factors k with subsequent calculation of log k. The procedure was performed under isocratic conditions with methanol as an organic modifier in the mobile phase using an end-capped non-polar C18 stationary RP column. The results are shown in Table 1 and illustrated in Figure 1.
A Waters Alliance 2695 XE HPLC separation module and a Waters Photodiode Array Detector 2996 (Waters Corp., Milford, MA, USA) were used. A Symmetry® C18 5 μm, 4.6 × 250 mm, Part No. WAT054275 (Waters Corp., Milford, MA, USA) chromatographic column was used. The HPLC separation process was monitored by Empower™ 2 Chromatography Data Software, Waters 2009 (Waters Corp., Milford, MA, USA). A mixture of MeOH p.a. (70%) and H2O-HPLC – Mili-Q Grade (30%) was used as a mobile phase. The total flow of the column was 1.0 mL/min, injection volume 30 μL, column temperature 30 °C and sample temperature 10°C. The detection wavelength of 210 nm was chosen. The KI methanolic solution was used for the dead time (tD) determination. Retention times (tR) were measured in minutes. The capacity factors k were calculated using the Empower™ 2 Chromatography Data Software according to formula k = (tR - tD)/tD, where tR is the retention time of the solute, whereas tD denotes the dead time obtained using an unretained analyte. Log k, calculated from the capacity factor k, is used as the lipophilicity index converted to log P scale.

[6] = parameters: method as in PMID 1151976; settings: parameter of the substituents in the anilide part; cited from earlier work
[7] = test system: photosynthetic electron transport (PET) in spinach chloroplasts; assay: Inhibition of photosynthetic electron transport (PET) in spinach chloroplasts, DCPIP photoreduction; assay type: biochemical, Spinacia oleracea L.; settings: for IC50: DCPIP photoreduction, pH 7.2
Description: Chloroplasts were prepared from spinach (Spinacia oleracea L.) according to Masarovicova and Kralova. The inhibition of photosynthetic electron transport (PET) in spinach chloroplasts was determined spectrophotometrically (Genesys 6, Thermo Scientific, USA), using an artificial electron acceptor 2,6-dichlorophenol-indophenol (DCIPP) according to Kralova et al., and the rate of photosynthetic electron transport was monitored as a photoreduction of DCPIP. The measurements were carried out in phosphate buffer (0.02 mol/L, pH 7.2) containing sucrose (0.4 mol/L), MgCl2 (0.005 mol/L) and NaCl (0.015 mol/L). The chlorophyll content was 30 mg/L in these experiments and the samples were irradiated (~100 W/m^2) from 10 cm distance with a halogen lamp (250 W) using a 4 cm water filter to prevent warming of the samples (suspension temperature 22 °C). The studied compounds were dissolved in DMSO due to their limited water solubility.

[8] = test system: Staphylococcus epidermidis H 6966/08; assay: In vitro anti-bacterial susceptibility, Mueller-Hinton broth; assay type: cell-based; settings: MIC = IC90 value, NA = no significant activity
[9] = Solubility in the PET testing medium (observation); assay type: physicochemical; settings: precipitation during the experiments
From the text: The activity of the rest of the studied compounds was moderate or low relative to the standard. PET inhibition by 8 or 9 could not be determined due to precipitation of the compounds during the experiments. With respect to these small but closed specifically substituted groups of compounds some structure-activity relationships (SAR) can be proposed.

[10] = test system: photosynthetic apparatus of spinach chloroplasts (PS 2 / PS 1); assay: Site of action: restoration of PET by artificial electron donors (DPC, DCPIPH2); assay type: biochemical, Spinacia oleracea L.
Description: To further determine the site of action of the studied compounds, experiments with 1,5-diphenylcarbazide (DPC) were performed. DPC is an artificial electron donor for PS 2 with a known site of action in the Z^•/D^• intermediate. The site of action of the artificial electron acceptor 2,6-dichlorophenol-indophenol (DCPIP) used for monitoring the Hill reaction is plastoquinone on the acceptor side of PS 2 [51]. Thus, if the part of the photosynthetic electron transport chain between manganese cluster and Z/D is inhibited, then DPC will restore PET through PS 2.

[11] = Lichtheimia corymbifera, 272, 24 h, read-out: MIC AC 24 h
[12] = Lichtheimia corymbifera, 272, 48 h, read-out: MIC AC 48 h
[13] = H6966/08, 24 h, read-out: MIC SE 24 h
[14] = H6966/08, 48 h, read-out: MIC SE 48 h

SMILES: CC(=O)N(O)CCCCCNC(=O)CCC(=O)N(O)CCCCCNC(=O)CCC(=O)N(O)CCCCCN [DFO, desferrioxamine]
- IC50 ([1]; Homo sapiens): 17.1 ± 3.77 µM

SMILES: Cc1cccc(C)c1NC(=O)c1ccccc1O [Compound 2, N-(2,6-Dimethylphenyl)-2-hydroxybenzamide]
- MIC [2, 11]: > 250 µM
- MIC [2, 12]: > 250 µM
- MIC ([3]; 72 h, read-out: MIC TM 72 h): 250 µM (≈ 60.3 µg/mL)
- MIC ([3]; 120 h, read-out: MIC TM 120 h): 500 µM (≈ 121 µg/mL)
- MIC ([4]; 24 h, read-out: MIC MRSA 24 h): > 500 µM
- MIC ([4]; 48 h, read-out: MIC MRSA 48 h): > 500 µM
- log k [5]: 0.6807
- MR (bulk parameter, reflecting bulkiness) [6]: 9.4
- σ (Hammett's parameter) [6]: 0.20
- IC50 [7]: 331 µM
- MIC [8, 13]: > 500 µM
- MIC [8, 14]: > 500 µM

SMILES: CCOc1ccccc1NC(=O)c1ccccc1O [Compound 4, N-(2-Ethoxyphenyl)-2-hydroxybenzamide]
- MIC [2, 11]: 62.5 µM (≈ 16.1 µg/mL)
- MIC [2, 12]: 125 µM (≈ 32.2 µg/mL)
- MIC ([3]; 72 h, read-out: MIC TM 72 h): 62.5 µM (≈ 16.1 µg/mL)
- MIC ([3]; 120 h, read-out: MIC TM 120 h): 62.5 µM (≈ 16.1 µg/mL)
- MIC ([4]; 24 h, read-out: MIC MRSA 24 h): 125 µM (≈ 32.2 µg/mL)
- MIC ([4]; 48 h, read-out: MIC MRSA 48 h): 125 µM (≈ 32.2 µg/mL)
- log k [5]: 0.7515
- MR (bulk parameter, reflecting bulkiness) [6]: 11.3
- σ (Hammett's parameter) [6]: 0.02
- IC50 [7]: 15 µM
- MIC [8, 13]: 125 µM (≈ 32.2 µg/mL)
- MIC [8, 14]: 125 µM (≈ 32.2 µg/mL)

SMILES: COC(=O)Nc1ccc(C(=O)Nc2cc(C(F)(F)F)ccc2Cl)cc1 [Compound 14, Methyl 4-[2-chloro-5-(trifluoromethyl)phenylcarbamoyl]phenylcarbamate]
- log k [5]: 0.7782
- MR (bulk parameter, reflecting bulkiness) [6]: 8.7
- σ (Hammett's parameter) [6]: 1.10
- IC50 [7]: 1 µM

SMILES: Nc1ccc(C(=O)Nc2cc(C(F)(F)F)ccc2Cl)cc1 [Compound 12, 4-Amino-N-[2-chloro-5-(trifluoromethyl)phenyl]benzamide]
- MR (bulk parameter, reflecting bulkiness) [6]: 8.7
- σ (Hammett's parameter) [6]: 1.10
- PET-inhibiting / biological activity in words [7]: did not show any biological activity in any of the assays

SMILES: O=C(NCc1ccccc1Cl)c1ccc([N+](=O)[O-])cc1 [Compound 9, N-(2-Chlorobenzyl)-4-nitrobenzamide]
- log k [5]: 0.6966
- MR (bulk parameter, reflecting bulkiness) [6]: 4.7
- σ (Hammett's parameter) [6]: 0.67
- solubility in the testing medium [9]: low solubility

SMILES: O=C(Nc1ccccc1Cl)c1ccc([N+](=O)[O-])cc1 [Compound 8, N-(2-Chlorophenyl)-4-nitrobenzamide]
- log k [5]: 0.6782
- MR (bulk parameter, reflecting bulkiness) [6]: 4.7
- σ (Hammett's parameter) [6]: 0.67
- solubility in the testing medium [9]: low solubility

SMILES: COC(=O)Nc1ccc(C(=O)NCc2ccccc2Cl)cc1 [Compound 13, Methyl 4-(2-chlorobenzylcarbamoyl)phenylcarbamate]
- log k [5]: 0.6345
- MR (bulk parameter, reflecting bulkiness) [6]: 4.7
- σ (Hammett's parameter) [6]: 0.67
- restoration of PET through PS 1 after addition of DCPIPH2 ([10]; DCPIPH2 40 μmol/L added to treated chloroplasts): completely restored
- restoration of PET through PS 2 after addition of DPC ([10]; DPC 2 mmol/L added to treated chloroplasts): not restored
- IC50 [7]: 1.6 µM

SMILES: Nc1ccc(C(=O)NCc2ccccc2Cl)cc1 [Compound 11, 4-Amino-N-(2-chlorobenzyl)benzamide]
- log k [5]: 0.5886
- MR (bulk parameter, reflecting bulkiness) [6]: 4.7
- σ (Hammett's parameter) [6]: 0.67
- PET-inhibiting / biological activity in words [7]: very low activity
- IC50 [7]: 398 µM

SMILES: CC1(C)S[C@@H]2[C@H](NC(=O)Cc3ccccc3)C(=O)N2[C@H]1C(=O)O [PEN, Penicillin G, reference compound]
- MIC ([4]; 24 h, read-out: MIC MRSA 24 h): 125 µM (≈ 41.8 µg/mL)
- MIC ([4]; 48 h, read-out: MIC MRSA 48 h): 125 µM (≈ 41.8 µg/mL)
- MIC [8, 13]: 31.6 µM (≈ 10.6 µg/mL)
- MIC [8, 14]: 125 µM (≈ 41.8 µg/mL)

SMILES: O=C(Nc1cc(C(F)(F)F)ccc1Cl)c1ccc([N+](=O)[O-])cc1 [Compound 10, N-[2-Chloro-5-(trifluoromethyl)phenyl]-4-nitrobenzamide]
- log k [5]: 0.8269
- MR (bulk parameter, reflecting bulkiness) [6]: 8.7
- σ (Hammett's parameter) [6]: 1.10
- PET-inhibiting / biological activity in words [7]: medium PET inhibiting activity
- IC50 [7]: 50.1 µM

SMILES: CCCOc1ccccc1NC(=O)c1ccccc1O [Compound 5, 2-Hydroxy-N-(2-propoxyphenyl)benzamide]
- MIC [2, 11]: 31.2 µM (≈ 8.48 µg/mL)
- MIC [2, 12]: 31.2 µM (≈ 8.48 µg/mL)
- MIC ([3]; 72 h, read-out: MIC TM 72 h): 31.2 µM (≈ 8.48 µg/mL)
- MIC ([3]; 120 h, read-out: MIC TM 120 h): 31.2 µM (≈ 8.48 µg/mL)
- MIC ([4]; 24 h, read-out: MIC MRSA 24 h): 31.2 µM (≈ 8.48 µg/mL)
- MIC ([4]; 48 h, read-out: MIC MRSA 48 h): 31.2 µM (≈ 8.48 µg/mL)
- log k [5]: 0.8401
- MR (bulk parameter, reflecting bulkiness) [6]: 15.9
- IC50 [7]: 44.8 µM
- MIC [8, 13]: 31.2 µM (≈ 8.48 µg/mL)
- MIC [8, 14]: 31.2 µM (≈ 8.48 µg/mL)

SMILES: CN(C)C(=S)NN=C(c1ccccn1)c1ccccn1 [Dp44mT, di-2-pyridylketone 4,4-dimethyl-3-thiosemicarbazone]
- IC50 [1]: 0.01 ± 0.01 µM

SMILES: OC(Cn1cncn1)(Cn1cncn1)c1ccc(F)cc1F [FLU, Fluconazole, reference compound]
- MIC [2, 11]: > 125 µM
- MIC [2, 12]: > 125 µM
- MIC ([3]; 72 h, read-out: MIC TM 72 h): 1.95 µM (≈ 0.597 µg/mL)
- MIC ([3]; 120 h, read-out: MIC TM 120 h): 3.91 µM (≈ 1.2 µg/mL)
